In ChEMBL document CHEMBL5247663, “Evaluating the druggability of TrmD, a potential antibacterial target, through design and microbiological profiling of a series of potent TrmD inhibitors” (Bioorg Med Chem Lett, 2023):
≈ marks a conversion by molar mass, not a printed value.

Legend:
[1] = biological target: T1, tRNA (guanine-N(1)-)-methyltransferase (Escherichia coli (strain K12), UniProt P0A873); test: Inhibition of Escherichia coli TrmD
T1 sequence (P0A873 whole entry): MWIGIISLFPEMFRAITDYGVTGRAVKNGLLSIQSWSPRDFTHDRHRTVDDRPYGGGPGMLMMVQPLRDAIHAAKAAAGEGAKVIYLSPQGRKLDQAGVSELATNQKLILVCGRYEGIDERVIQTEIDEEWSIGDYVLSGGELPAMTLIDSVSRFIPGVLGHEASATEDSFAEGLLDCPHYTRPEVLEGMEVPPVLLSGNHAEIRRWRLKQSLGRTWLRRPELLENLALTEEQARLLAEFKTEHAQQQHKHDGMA

[2] = biological target: T1, tRNA (guanine-N(1)-)-methyltransferase; test: Binding affinity to Escherichia coli TrmD by surface plasmon resonance assay
[3] = Lipophilicity, logD of the compound at pH 7.4; type: physicochemical; conditions: buffer
Haemophilus influenzae = test: Antibacterial activity against Haemophilus influenzae ATCC 49247 assessed as inhibition of bacterial growth; type: functional
Escherichia coli [4] = test: Antibacterial activity against efflux-defective Escherichia coli N43 deficit of AcrAB-TolC assessed as inhibition of bacterial growth; type: functional
Escherichia coli [5] = test: Antibacterial activity against efflux-defective Escherichia coli N43 deficit of AcrAB-TolC assessed as inhibition of bacterial growth in presence of 4 ug/ml membrane-permeabilising agent, polymyxin B; type: functional
Neisseria gonorrhoeae = test: Antibacterial activity against Neisseria gonorrhoeae ATCC 49226 assessed as inhibition of bacterial growth; type: functional
Acinetobacter baumannii = test: Antibacterial activity against Acinetobacter baumannii NCTC 13420 assessed as inhibition of bacterial growth; type: functional
Bacillus subtilis = test: Antibacterial activity against Bacillus subtilis ATCC 6633 assessed as inhibition of bacterial growth; type: functional
Francisella tularensis = test: Antibacterial activity against Francisella tularensis-Schu S4 assessed as inhibition of bacterial growth; type: functional
Pseudomonas aeruginosa = test: Antibacterial activity against Pseudomonas aeruginosa ATCC 27853 assessed as inhibition of bacterial growth; type: functional
[6] = system: Staphylococcus epidermidis; test: Antibacterial activity against Staphylococcus epidermidis ATCC 12228 assessed as inhibition of bacterial growth; type: functional
Burkholderia cepacia = test: Antibacterial activity against Burkholderia cepacia ATCC 25416 assessed as inhibition of bacterial growth; type: functional
Enterococcus faecium = test: Antibacterial activity against Enterococcus faecium ATCC 19434 assessed as inhibition of bacterial growth; type: functional
Streptococcus pneumoniae = test: Antibacterial activity against Streptococcus pneumoniae ATCC 49619 assessed as inhibition of bacterial growth; type: functional
Moraxella catarrhalis = test: Antibacterial activity against Moraxella catarrhalis ATCC 25240 assessed as inhibition of bacterial growth; type: functional
Yersinia pestis = test: Antibacterial activity against Yersinia pestis CO92 assessed as inhibition of bacterial growth; type: functional
Coxiella burnetii = test: Antibacterial activity against Coxiella burnetii Nine Mile assessed as inhibition of bacterial growth; type: functional
[7] = Cytotoxicity against human HepG2 cells; type: toxicity, cell-based
Escherichia coli [8] = test: Antibacterial activity against Escherichia coli W4573 harboring functional AcrAB-TolC assessed as inhibition of bacterial growth

## NCc1cccc(CNc2ccc(C(N)=O)cn2)c1
[1]
  IC50: 1.4 µM

## NC(=O)c1ccc2nc(N)sc2c1
[2]
  Kd: 420 µM
[1]
  IC50: 150 µM

## CC(C)(CNc1ccc(C(N)=O)cn1)c1ccccc1
[3]
  logD: 3
[1]
  IC50: 0.027 µM
Haemophilus influenzae
  MIC: 512 µg/mL (≈ 1900 µM)
Escherichia coli [4]
  MIC: 512 µg/mL (≈ 1900 µM)
Escherichia coli [5]
  MIC: 256 µg/mL
Neisseria gonorrhoeae
  MIC: 128 µg/mL (≈ 475 µM)
Acinetobacter baumannii
  MIC: > 256 µg/mL
Bacillus subtilis
  MIC: > 256 µg/mL
Francisella tularensis
  MIC: > 256 µg/mL
Pseudomonas aeruginosa
  MIC: > 256 µg/mL
[6]
  MIC: > 256 µg/mL
Burkholderia cepacia
  MIC: > 256 µg/mL
Enterococcus faecium
  MIC: > 256 µg/mL
Streptococcus pneumoniae
  MIC: > 256 µg/mL
Moraxella catarrhalis
  MIC: 128 µg/mL (≈ 475 µM)
Yersinia pestis
  MIC: 256 µg/mL (≈ 950 µM)
Coxiella burnetii
  MIC: > 64 µg/mL
[7]
  CC50: > 128 µg/mL

## CC(C)(CNc1ccc(C(N)=O)cn1)c1cccc(CN)c1
[1]
  IC50: 0.009 µM
Haemophilus influenzae
  MIC: 256 µg/mL (≈ 858 µM)
Escherichia coli [4]
  MIC: > 1020 µg/mL
Escherichia coli [5]
  MIC: > 1020 µg/mL
Neisseria gonorrhoeae
  MIC: > 256 µg/mL
Acinetobacter baumannii
  MIC: > 256 µg/mL
Bacillus subtilis
  MIC: > 256 µg/mL
Francisella tularensis
  MIC: > 256 µg/mL
Pseudomonas aeruginosa
  MIC: > 256 µg/mL
[6]
  MIC: > 256 µg/mL
Burkholderia cepacia
  MIC: > 256 µg/mL
Enterococcus faecium
  MIC: > 256 µg/mL
Streptococcus pneumoniae
  MIC: > 256 µg/mL
Moraxella catarrhalis
  MIC: > 256 µg/mL
Yersinia pestis
  MIC: 256 µg/mL (≈ 858 µM)
Coxiella burnetii
  MIC: > 64 µg/mL
[7]
  CC50: > 256 µg/mL

## NC(=O)c1ccc(NCc2cccc(N3CCNC(C(F)(F)F)C3)c2)nc1 (centres undefined)
[1]
  IC50: > 10 µM

## OCc1cc(-c2cccs2)[nH]n1
[2]
  Kd: 260 µM
[1]
  IC50: 320 µM

## CN(C(=O)Cn1c(C2CC2)cc2cc(C(N)=O)cnc21)[C@@H]1C[C@H]2CC[C@@H](C1)N2
[3]
  logD: 0.2
[1]
  IC50: 0.036 µM
Haemophilus influenzae
  MIC: > 512 µg/mL
Escherichia coli [4]
  MIC: > 512 µg/mL
Escherichia coli [5]
  MIC: > 1020 µg/mL

## C[C@H](Nc1ccc(C(N)=O)cn1)c1ccccc1
[1]
  IC50: 1.3 µM

## CC(C)(C)CNc1ccc(C(N)=O)cn1
[1]
  IC50: 0.14 µM

## NC(=O)c1ccc(NC2(c3ccccc3)CC2)nc1
[1]
  IC50: 0.27 µM

## NC(=O)c1ccc(NC2(c3cccc(N4CCNCC4)c3)CC2)nc1
[3]
  logD: 1.4
[1]
  IC50: 0.011 µM
Haemophilus influenzae
  MIC: 1020 µg/mL (≈ 3030 µM)
Escherichia coli [4]
  MIC: > 1020 µg/mL
Escherichia coli [5]
  MIC: > 1020 µg/mL

## CN1CCC(N(C)C(=O)Cn2c(C3CC3)cc3cc(C(N)=O)cnc32)CC1
[1]
  IC50: 0.039 µM
Haemophilus influenzae
  MIC: > 256 µg/mL
Escherichia coli [4]
  MIC: > 512 µg/mL
Escherichia coli [5]
  MIC: > 1020 µg/mL

## CC[C@H]1OC(=O)[C@H](C)[C@@H](O[C@H]2C[C@@](C)(OC)[C@@H](O)[C@H](C)O2)[C@H](C)[C@@H](O[C@@H]2O[C@H](C)C[C@H](N(C)C)[C@H]2O)[C@](C)(O)C[C@@H](C)C(=O)[C@H](C)[C@@H](O)[C@]1(C)O [ERYTHROMYCIN]
Haemophilus influenzae
  MIC: 4 µg/mL (≈ 5.45 µM)
Escherichia coli [4]
  MIC: 8 µg/mL (≈ 10.9 µM)
Escherichia coli [8]
  MIC: 64 µg/mL (≈ 87.2 µM)
Escherichia coli [5]
  MIC: 0.5 µg/mL

## CC(C)(CNc1ccc(C(N)=O)cn1)c1cccc(NC2CNC2)c1
[3]
  logD: 1
[1]
  IC50: 0.13 µM
Haemophilus influenzae
  MIC: > 512 µg/mL
Escherichia coli [4]
  MIC: > 1020 µg/mL
Escherichia coli [5]
  MIC: > 1020 µg/mL

## NC(=O)c1ccc(N)cn1
[1]
  IC50: > 1000 µM

## NCc1ccc(Cn2ccc3cc(C(N)=O)cnc32)cc1
[1]
  IC50: 1.9 µM

## CN1CCN(C(=O)Cn2c(C3CC3)cc3cc(C(N)=O)cnc32)CC1
[3]
  logD: 2.7
[1]
  IC50: 0.038 µM
Haemophilus influenzae
  MIC: > 1020 µg/mL
Escherichia coli [4]
  MIC: > 512 µg/mL
Escherichia coli [5]
  MIC: > 512 µg/mL

## CC(C)(Nc1ccc(C(N)=O)cn1)c1ccccc1
[1]
  IC50: 2.1 µM

## NC(=O)c1ccc(N)nc1 [6-AMINONICOTINAMIDE]
[2]
  Kd: 1.3 µM
[1]
  IC50: 26 µM

## NC(=O)c1cnc2c(ccn2CC(=O)N2CCNCC2)c1
[1]
  IC50: 0.8 µM

## C[C@@H](Nc1ccc(C(N)=O)cn1)c1ccccc1
[1]
  IC50: 48 µM

## NC(=O)c1ccc(NCc2ccccc2)nc1
[1]
  IC50: 3.2 µM

## NCc1ccc(CNc2ccc(C(N)=O)cn2)cc1
[1]
  IC50: 2.3 µM

## NC(=O)c1ccc(NC2CCCC2)nc1
[1]
  IC50: 0.11 µM

## CC(C)[C@H]1CN(C(=O)Cn2c(C3CC3)cc3cc(C(N)=O)cnc32)CCN1
[1]
  IC50: 0.096 µM
Haemophilus influenzae
  MIC: 1020 µg/mL (≈ 2770 µM)
Escherichia coli [4]
  MIC: > 1020 µg/mL
Escherichia coli [5]
  MIC: > 1020 µg/mL

## NC(=O)c1ccc(N)cc1
[1]
  IC50: 670 µM

## CNC(=O)Cn1ccc2cc(C(N)=O)cnc21
[1]
  IC50: 64 µM

## NC(=O)c1ccc2[nH]ccc2c1
[1]
  IC50: 160 µM

## NC(=O)c1cnc2c(c1)cc(C1CC1)n2CC(=O)N1CCNCC1
[3]
  logD: -0.1
[1]
  IC50: 0.013 µM
Escherichia coli [4]
  MIC: > 1020 µg/mL
Escherichia coli [5]
  MIC: > 1020 µg/mL
Neisseria gonorrhoeae
  MIC: > 256 µg/mL
Acinetobacter baumannii
  MIC: > 256 µg/mL
Bacillus subtilis
  MIC: > 256 µg/mL
Francisella tularensis
  MIC: > 256 µg/mL
Pseudomonas aeruginosa
  MIC: > 256 µg/mL
[6]
  MIC: > 256 µg/mL
Burkholderia cepacia
  MIC: > 256 µg/mL
Enterococcus faecium
  MIC: > 256 µg/mL
Streptococcus pneumoniae
  MIC: > 256 µg/mL
Moraxella catarrhalis
  MIC: > 256 µg/mL
Yersinia pestis
  MIC: 256 µg/mL (≈ 782 µM)
Coxiella burnetii
  MIC: > 64 µg/mL
[7]
  CC50: > 256 µg/mL

## CN(C(=O)Cn1ccc2cc(C(N)=O)cnc21)C1CCNCC1
[1]
  IC50: 0.83 µM

## NCc1ccc(Cn2c(C3CC3)cc3cc(C(N)=O)cnc32)cc1
[3]
  logD: 1.4
[1]
  IC50: 0.31 µM
Haemophilus influenzae
  MIC: > 1020 µg/mL
Escherichia coli [4]
  MIC: 1020 µg/mL (≈ 3200 µM)
Escherichia coli [5]
  MIC: 1020 µg/mL

## NCc1ccc(Cn2ccc3cc(C(N)=O)ccc32)cc1
[1]
  IC50: 13 µM

## NC(=O)c1cnc2c(ccn2CC(=O)NC2CCNCC2)c1
[1]
  IC50: 6.5 µM

## CC(C)(CNc1ccc(C(N)=O)cn1)c1cccc(N2CCNCC2)c1
[3]
  logD: 1.6
[1]
  IC50: 0.05 µM
Haemophilus influenzae
  MIC: > 1020 µg/mL
Escherichia coli [4]
  MIC: 1020 µg/mL (≈ 2900 µM)
Escherichia coli [5]
  MIC: 1020 µg/mL

## NC(=O)c1cnc2c(c1)cc(C1CC1)n2CC(=O)N1CCNC(=O)C1
[1]
  IC50: 0.12 µM
Haemophilus influenzae
  MIC: > 512 µg/mL
Escherichia coli [4]
  MIC: > 1020 µg/mL
Escherichia coli [5]
  MIC: > 1020 µg/mL

## NC(=O)c1cnc2c(ccn2CC(=O)NC2CNC2)c1
[1]
  IC50: 4.5 µM

## NC(=O)c1ccc(NCc2cccc(N3CCNCC3)c2)nc1
[3]
  logD: 1
[1]
  IC50: 0.31 µM
Haemophilus influenzae
  MIC: 1020 µg/mL (≈ 3290 µM)
Escherichia coli [4]
  MIC: > 1020 µg/mL
Escherichia coli [5]
  MIC: > 1020 µg/mL

## CN(C(=O)Cn1c(C2CC2)cc2cc(C(N)=O)cnc21)C1CCNCC1
[3]
  logD: -0.2
[1]
  IC50: 0.037 µM
Haemophilus influenzae
  MIC: > 1020 µg/mL
Escherichia coli [4]
  MIC: > 256 µg/mL
Escherichia coli [5]
  MIC: > 512 µg/mL
